Laboratory results published in patent publication US20250129122A1, “PEPTIDE, AND CELL FUSION AGENT AND PHARMACEUTICAL COMPOSITION FOR CANCER THERAPY CONTAINING SAID PEPTIDE” (priority 2021, published 2025).

Columns and labels:
RFL cells = assay: Apoptosis induction, Caspase-3/7 activity (IncuCyte S3 live cell analysis); assay type: cell-based, rat; conditions: 0.06 μg/mL, scanned every hour for 3 days, untreated control did not increase
Protocol: (§1) In this Example, the apoptosis ability of peptide 16 was examined using the […] and RM4 cells. An activity of Caspase-3/7 which are indications of apoptosis, was measured using IncuCyte S3 live cell analysis system (Essen BioScience).
(§2) The activity of Caspase-3/7 activity is measured using an inert non-fluorescent (DEVD) substrate that can penetrate the cell membrane. An activated Caspase-3/7 cleaves the substrate, and thereby a DNA-bound green fluorescent label is released. The activity of Caspase-3/7 is measured by the intensity of green fluorescence.
(§3) RFL cells or RM4 cells were seeded on 96-well plates and 0.06 μg/mL of peptide 16 was added thereto. Caspase-3/7 Green Reagent (Unit size: 20 ul, 5 mM/vial) was diluted 500-fold with Ham's F-12K and added thereto.
(§4) They were measured using the IncuCyte S3 live cell analysis system, by continuously scanning every hour for 3 days with an objective lens of magnification of 10 times and 4 fields of view. As a control, RFL cells or RM-4 cells which were not treated with peptide 16, were used.

RM4 cells = assay: as above; assay type: cell-based; conditions: 0.06 μg/mL, scanned every hour for 3 days, untreated control did not increase
Protocol: as §1, §2, §3, §4

HVJ virus (Sendai virus) = assay: Virus envelope fusion, electron micrograph
Text: In this example, peptide 16 was applied to the HVJ virus (Sendai virus), and its ability to fuse with the virus was examined.

[1] = test system: A549 cells (human alveolar epithelial adenocarcinoma cells); assay: In vivo anticancer effect on A549 tumor transplanted in nude mice; design: species or system mouse; conditions: A549 subcutaneous, 18.75 mg/kg or 37.5 mg/kg intravenously two times/week during 5 weeks, autopsy 35 days after implantation
Protocol: In this example, the anticancer effect of peptide 16 on A549 cells (human alveolar epithelial adenocarcinoma cells) was examined in vivo.
CAnN.Cg-Foxn1nu/CrlCrlj nude mice were divided into groups of 6 animals each. A549 cells were suspended in PBS at a concentration of 1×10^8 cells/mL and 0.1 mL thereof were transplanted subcutaneously to the right ventral part thereof. The peptide 16 was administered intravenously from the tail vein at a dose of 18.75 mg/kg or 37.5 mg/kg (peptide 16 group-1, or peptide 16 group-2) on two times/week during 5 weeks after tumor transplantation. Control group was administered PBS only.
Autopsy was performed 35 days after tumor implantation, and the tumor was removed. FIGS. 13A (×100) and B (×400) are the photographs of tumor masses of A549 cells treated with peptide 16, and FIGS. 13C (×100) and D (×400) are the controls.

Substance: CH3-Pro-Ile-Val-Ser-Thr-Gln-Thr-Ala-Leu-Ala-miniPEG-D-Lys-D-Lys-D-Lys-NH2 [peptide 16]
- activity of Caspase-3/7 (RFL cells): the activity increased rapidly between 10 and 20 hours
- activity of Caspase-3/7 (RM4 cells): the activity increased rapidly between 10 and 20 hours
- fusion of the virus envelope (HVJ virus (Sendai virus)): Fusion of the envelope of the HVJ virus was observed
- antitumor effect, HE-stained excised tumor [1]: the inside of the tumor is necrotic
